Like-named read-outs stand apart in the source and are kept apart here.
What was measured:
[1] = system: Pseudomonas syringae pv. tomato DC3000 (Pst); assay type: in vivo; settings: Arabidopsis thaliana; for induced resistance against Pst (disease severity, statistical significance vs water-treated control): 50 μl of 0.1% amino acid to roots, Pst 7 days later, severity 7 days after pathogen; for disease severity (score 0 to 5): water-treated group 4.6
[2] = system: lettuce bacterial soft rot (Pectobacterium carotovorum pv. carotovora); test: Optimal conditions, two treatments: lettuce bacterial soft rot (disease severity, control value); settings: treatment 7 days and 1 day before pathogen; for control value, lettuce bacterial soft rot: from disease severity, vs untreated group; for disease severity (score 0 to 5), lettuce bacterial soft rot: 48 hours after pathogen, water control group 4.2
Description: (§2) A total of 3 crops (soybean, cucumber, lettuce) were tested against 3 pathogens (soybean Phytophthora stem and root rot, cucumber bacterial leaf blight, lettuce bacterial soft rot), and each plant was prepared in the same manner as Example 5.
(§3) From the disease severity investigated in this manner, a control value was calculated according to the following Equation.

[3] = system: Phytophthora sojae; test: Pot experiment, soybean Phytophthora stem and root rot (diseased area, control value); assay type: in vivo; settings: diseased area after 3 days, vs untreated group
[4] = system: Pathogenesis-related protein (PR) 1a promoter GUS fusion construct; test: Expression of disease resistance marker gene PR1a through GUS activity; assay type: in vivo, Arabidopsis thaliana; settings: roots treated with 50 μl; observed 1 Dai to 4 Dai after pathogen treatment
[5] = system: Botrytis cinerea; test: Pot experiment, tomato gray mold (diseased area, control value); assay type: in vivo; settings: diseased area after 3 days, vs untreated group
[6] = system: Magnaporthe oryzae KI-1113a; assay type: in vivo; settings: pot; 5 ml spray (amino acid 0.1%) one day before inoculation; diseased area after 24 h dark plus 4 days; vs untreated group
[7] = system: Pseudomonas syringae pv. lachrymans; test: Pot experiment, cucumber bacterial leaf blight (diseased area, control value); assay type: in vivo; settings: 5 ml spray (amino acid 0.1%) one day before inoculation, diseased area after 3 days, vs untreated group
[8] = system: cucumbers; test: Growth promoting ability, shoot weight of cucumbers; assay type: in vivo, cucumber; settings: untreated group 31 g; for shoot weight, cucumbers (average): root zone treatment twice at one week intervals (valine 5 ml, 0.1%), two weeks after last treatment
Description: (§1) The growth of soybeans and cucumbers was observed by treatment with valine. One week after sowing in pots, root zone treatment of each plant was performed using 5 ml of valine at a concentration of 0.1%. The root zone treatment with valine was performed twice at one week intervals. Two weeks after the last treatment, a shoot of each treatment group was cut and weighed.

[9] = system: soybean Phytophthora stem and root rot (Phytophthora sojae); settings: treatment 7 days and 1 day before pathogen; for control value, soybean Phytophthora stem and root rot: from disease severity, vs untreated group; for disease severity (score 0 to 5), soybean Phytophthora stem and root rot: 7 days after pathogen, water control group 4.1
Description: as §2, §3

[10] = system: soybeans; test: Growth promoting ability, shoot weight of soybeans; assay type: in vivo, soybean; settings: untreated group 8.6 g; for shoot weight, soybeans (average): root zone treatment twice at one week intervals (valine 5 ml, 0.1%), two weeks after last treatment
Description: as §1

[11] = system: Pectobacterium carotovorum pv. carotovora; test: Pot experiment, lettuce bacterial soft rot (diseased area, control value); assay type: in vivo; settings: diseased area after 1 day, vs untreated group
[12] = system: Pst pathogen; assay type: in vivo, Pseudomonas syringae pv. tomato; settings: Arabidopsis thaliana; 0.1% amino acid; day 6 after Pst
[13] = system: Pcc pathogen; settings: Arabidopsis thaliana; 0.1% amino acid; day 3 after Pcc
[14] = system: Soybean Phytophthora stem and root rot; settings: 7 days after disease treatment, NDVI 0.7 or more = healthy, untreated group 26%
Description: The induced resistance against Soybean Phytophthora stem and root rot was investigated using a hyperspectral camera and a visible light band camera. Plant preparation was carried out in the same manner as in Example 6, and 7 days after disease treatment, leaves were picked from the same position in each treatment group, and hyperspectral photographs were taken.
It was quantified by the normalized difference vegetation index (NDVI). The degree of diseased leaves in the entire leaf area was indicated from 0.1 to 0.9 and the number of the corresponding pixels was used. Generally, when the number is 0.7 or more, it is considered a healthy leaf.

[15] = valine 5 ml, 0.1%, root zone, twice

Row | Structure (SMILES) | induced resistance against Pst (disease severity, statistical significance vs water-treated control) [1] | control value, lettuce bacterial soft rot [2] | control value, soybean Phytophthora stem and root rot [3] | PR1a expression (GUS activity in leaf area) [4] | control value, rice blast [6] | control value, cucumber bacterial leaf blight [7] | control value, soybean Phytophthora stem and root rot [9] | control value, lettuce bacterial soft rot [11] | number of Pst pathogens vs untreated control group [12] | number of Pcc pathogen vs untreated control group [13] | number of Pcc pathogens vs BTH-treated group [13] | further results
1 | N[C@@H](CC(=O)O)C(=O)O [aspartic acid] | induced the resistance against Pst | – | – | – | – | – | – | – | – | – | – | –
2 | N[C@@H](CCC(=O)O)C(=O)O [glutamic acid] | induced the resistance against Pst | – | – | – | – | – | – | – | – | – | – | –
3 | CC(C)C[C@H](N)C(=O)O [leucine] | induced the resistance against Pst | – | – | – | – | – | – | – | – | – | – | –
4 | CSC(=O)c1cccc2nnsc12 [BTH, benzo(1,2,3)-thiadiazole-7-carbothioic acid S-methyl ester, reference compound] | – | 17% | 10% | GUS was expressed in the leaf area | 9% | 9% | 46% | 10% | – | – | – | control value, tomato gray mold [5]: 20%; shoot weight, cucumbers (average) [8]: 26 g; disease severity (score 0 to 5) ([1]; Pst, 1 mM BTH): 3.7; shoot weight, soybeans (average) [10]: 7.3 g
5 | O=C(O)[C@@H]1CCCN1 [proline] | induced the resistance against Pst | – | – | GUS was expressed in the leaf area | – | – | – | – | statistically significant reduction in the number of pathogens | reduction in the number of Pcc pathogen | reduction in the number of pathogens, as compared to the BTH-treated group | –
6 | N[C@@H](Cc1c[nH]cn1)C(=O)O [histidine] | induced the resistance against Pst | – | – | – | – | – | – | – | – | – | – | –
7 | CC[C@H](C)[C@H](N)C(=O)O [isoleucine] | induced the resistance against Pst | 29% | 10% | GUS was expressed in the leaf area | 16% | 12% | 44% | 8% | statistically significant reduction in the number of pathogens | reduction in the number of Pcc pathogen | reduction in the number of pathogens, as compared to the BTH-treated group | disease severity (score 0 to 5), lettuce bacterial soft rot [2]: 3; healthy leaves (NDVI, hyperspectral camera) [14]: 46%; disease severity (score 0 to 5), soybean Phytophthora stem and root rot [9]: 2.3
8 | CC(C)[C@H](N)C(=O)O [valine] | induced the resistance against Pst | 48% | 15% | GUS was expressed in the leaf area | 13% | 17% | 73% | 13% | statistically significant reduction in the number of pathogens | reduction in the number of Pcc pathogen | reduction in the number of pathogens, as compared to the BTH-treated group | disease severity (score 0 to 5), lettuce bacterial soft rot [2]: 2.2; healthy leaves (NDVI, hyperspectral camera) [14]: 60%; shoot weight, cucumbers (average) [8]: 34 g; shoot weight heavier than untreated group, cucumbers [8, 15]: 3 g; disease severity (score 0 to 5), soybean Phytophthora stem and root rot [9]: 1.1; disease severity (score 0 to 5) ([1]; Pst, 0.1% (0.95 mM) valine): 2.5; disease severity (score 0 to 5) ([1]; Pst, 0.5% valine): 2.4; overall disease severity in valine-treated groups ([1]; Pst, valine 0.5%, 0.1%, 0.05%, 0.01%, 0.005% and 0.001%, vs water-treated group): overall disease severity decreased; shoot weight, soybeans (average) [10]: 11 g; shoot weight heavier than untreated group, soybeans [10, 15]: 2.4 g
